Test results taken from patent US20130210625A1, “SPIROHETEROCYCLIC PYRROLIDINE DERIVATIVES BASED PESTICIDES” (SYNGENTA CROP PROTECTION LLC, priority 2010, published 2013).

Tests used:
[1] = tested on: Myzus persicae (Green Peach Aphid); test: Activity against Myzus persicae, mixed population, systemic/feeding activity, curative (Example B2); format: in vivo; conditions: 144 h, roots of infested pea seedlings in test solution, mortality 6 days after introduction
Description: Activity Against Myzus persicae (Green Peach Aphid) (Mixed Population, Systemic/Feeding Activity, Curative)
Roots of pea seedlings, infested with an aphid population of mixed ages, are placed directly in the test solutions. 6 days after introduction, samples are checked for mortality and special effects on the plant.

[2] = tested on: Tetranychus urticae (Two-Spotted Spider Mite); test: Activity against Tetranychus urticae, mixed population, feeding/residual contact activity, preventive (Example B4); format: in vivo; conditions: foliar, 192 h, bean leaf discs sprayed, egg, larval and adult mortality 8 days later
Description: Activity Against Tetranychus urticae (Two-Spotted Spider Mite) (Mixed Population, Feeding/Residual Contact Activity, Preventive)
Bean leaf discs on agar in 24-well microtiter plates are sprayed with test solutions. After drying, the leaf discs are infested with mite populations of mixed ages. 8 days later, discs are checked for egg mortality, larval mortality, and adult mortality.

[3] = tested on: Myzus persicae (Green Peach Aphid); test: Activity against Myzus persicae on cabbage plants, feeding/residual contact activity (Example B5); format: in vivo; conditions: 144 h, infested cabbage plants, spray chamber, mortality 6 days after treatment
Procedure: Activity Against Myzus persicae (Green Peach Aphid) (Mixed Population, Feeding/Residual Contact Activity, Plant Damage Evaluation)
Cabbage plants infested with a mixed population of Myzus persicae are treated with diluted test solutions of the compounds in a spray chamber. 6 days after treatment, samples are checked for mortality and for plant damage (phytotoxicity), visual assessment being made using a 0-100% rating scale (100%=total damage to plant; 0%=no damage to plant).

[4] = tested on: Myzus persicae (Green Peach Aphid); test: Activity against Myzus persicae, mixed population, feeding/residual contact activity, preventive (Example B1); format: in vivo; set-up: concentration or dose not given beside the values; conditions: foliar, 144 h, sunflower leaf discs sprayed, mortality checked after 6 days
Procedure: Activity Against Myzus persicae (Green Peach Aphid) (Mixed Population, Feeding/Residual Contact Activity, Preventive)
Sunflower leaf discs are placed on agar in a 24-well microtiter plate and sprayed with test solutions. After drying, the leaf discs are infested with an aphid population of mixed ages. After an incubation period of 6 days, samples are checked for mortality and special effects (e.g. phytotoxicity).

[5] = tested on: Aphis craccivora (Cowpea Aphid); test: Activity against Aphis craccivora, mixed population, contact/feeding (Example B9); format: in vivo; conditions: 200 ppm; infested pea seedlings, spray chamber; mortality 6 days after treatment
Procedure: Activity Against Aphis craccivora (Cowpea Aphid) (Mixed Population, Contact/Feeding)
Pea seedlings, infested with an aphid population of mixed ages, are treated (2 replicates) with diluted test solutions in a spray chamber. 6 days after treatment, samples are checked for mortality.

For `CCOC(=O)OC1=C(c2cc(C(C)=O)ccc2C)C(=O)NC12CCN(OC)CC2` [Compound P1.2], which melting point is on record?
Its melting point is 185 to 187 °C.

With `C=Cc1cc(C)cc(C)c1C1=C(OC(=O)OCC)C2(CCN(OC)CC2)NC1=O` [Compound P1.3] as the compound, how does the pest or weed control at 400 ppm [1] read?
The pest or weed control at 400 ppm was greater than 80%.

What about the pest or weed control at 400 ppm [2] of the same compound?
Its pest or weed control at 400 ppm is greater than 80%.

What about the pest or weed control at 200 ppm [3] of the same compound?
Its pest or weed control at 200 ppm is no less than 80%.

And the pest or weed control [4]?
The pest or weed control was greater than 80%.

What does the source list for `C=Cc1cc(C)cc(C)c1C1=C(OC(=O)OCC)C2(CCN(OC)CC2)N(C)C1=O` [Compound P1.4]?
pest or weed control at 400 ppm [2]: > 80%; pest or weed control at 200 ppm [3]: ≥ 80%; pest or weed control [4]: > 80%

Which results are given for `C=Cc1cc(C)cc(C)c1C1=C(OC(=O)OCC)C2(CCN(OC)CC2)N(OC2CCCO2)C1=O` (stereo not shown) [Compound P1.5, Carbonic acid 3-(2,4-dimethyl-6-vinyl-phenyl)-8-methoxy-2-oxo-1-(tetrahydro-furan-2-yloxy)-1,8-diaza-spiro[4.5]dec-3-en-4-yl ester ethyl ester]?
pest or weed control at 400 ppm [2]: > 80%; pest or weed control at 200 ppm [3]: ≥ 80%; pest or weed control [4]: > 80%

Which activity [5] does the source give for `C=Cc1cc(C)c(C2=C(OC(=O)OCC)C3(CCN(OC)CC3)N(C)C2=O)c(C)c1` [Compound P1.6] here?
The activity was “over 80%”.

And the pest or weed control at 200 ppm [3]?
Its pest or weed control at 200 ppm is no less than 80%.

For `C#Cc1cc(C)cc(C)c1C1=C(OC(=O)OCC)C2(CCN(OC)CC2)NC1=O` [Compound P1.7], which pest or weed control at 400 ppm [1] is on record?
The pest or weed control at 400 ppm was greater than 80%.

What about the pest or weed control at 400 ppm [2] of the same compound?
Its pest or weed control at 400 ppm is greater than 80%.

What about the pest or weed control at 200 ppm [3] of the same compound?
Its pest or weed control at 200 ppm is no less than 80%.

What about the pest or weed control [4] of the same compound?
The pest or weed control was greater than 80%.

Which pest or weed control at 400 ppm [1] does the source give for `C#Cc1cc(C)cc(C)c1C1=C(OC(=O)OCC)C2(CCN(OC)CC2)N(C)C1=O` [Compound P1.8] here?
Its pest or weed control at 400 ppm is greater than 80%.

What about the pest or weed control at 400 ppm [2] of the same compound?
The pest or weed control at 400 ppm was greater than 80%.

What about the pest or weed control at 200 ppm [3] of the same compound?
Its pest or weed control at 200 ppm is no less than 80%.

What about the pest or weed control [4] of the same compound?
The pest or weed control was greater than 80%.

For `C#Cc1cc(C)cc(C)c1C1=C(OC(=O)OCC)C2(CCN(OC)CC2)N(OC2CCCO2)C1=O` (stereo not shown) [Compound P1.9], which pest or weed control at 400 ppm [1] is on record?
The pest or weed control at 400 ppm was greater than 80%.

And the pest or weed control at 400 ppm [2]?
Its pest or weed control at 400 ppm is greater than 80%.

What about the pest or weed control at 200 ppm [3] of the same compound?
Its pest or weed control at 200 ppm is no less than 80%.

What about the pest or weed control [4] of the same compound?
Its pest or weed control is greater than 80%.

With `C#Cc1ccc(C)cc1C1=C(OC(=O)OCC)C2(CCN(OC)CC2)NC1=O` [Compound P1.10] as the compound, how does the pest or weed control at 200 ppm [3] read?
Its pest or weed control at 200 ppm is no less than 80%.

Which results are given for `C#Cc1ccc(C)cc1C1=C(OC(=O)OCC)C2(CCN(OC)CC2)N(OC)C1=O` [Compound P1.11]?
pest or weed control at 400 ppm [2]: > 80%; pest or weed control at 200 ppm [3]: ≥ 80%; pest or weed control [4]: > 80%

What does the source list for `C#Cc1cc(C)c(C2=C(OC(=O)OCC)C3(CCN(OC)CC3)NC2=O)c(C)c1` [Compound P1.12]?
pest or weed control at 400 ppm [1]: > 80%; pest or weed control at 200 ppm [3]: ≥ 80%; pest or weed control [4]: > 80%

Which pest or weed control at 400 ppm [1] does the source give for `C#Cc1cc(C)c(C2=C(OC(=O)OCC)C3(CCN(OC)CC3)N(C)C2=O)c(C)c1` [Compound P1.13] here?
The pest or weed control at 400 ppm was greater than 80%.

And the pest or weed control at 200 ppm [3]?
Its pest or weed control at 200 ppm is no less than 80%.

What about the pest or weed control [4] of the same compound?
The pest or weed control was greater than 80%.

With `CC#Cc1cc(C)c(C2=C(OC(=O)OCC)C3(CCN(OC)CC3)N(C)C2=O)c(C)c1` [Compound P1.14] as the compound, how does the pest or weed control at 400 ppm [1] read?
The pest or weed control at 400 ppm was greater than 80%.

What about the pest or weed control at 400 ppm [2] of the same compound?
The pest or weed control at 400 ppm was greater than 80%.

And the pest or weed control at 200 ppm [3]?
The pest or weed control at 200 ppm was no less than 80%.

For `CON1CCC2(CC1)NC(=O)C(c1cc(C(C)=O)ccc1C)C2=O` (stereo not shown) [Compound P2.1], which melting point is on record?
The melting point was 218 to 220 °C.

For `COC(=O)c1ccc(C)c(C2C(=O)NC3(CCN(OC)CC3)C2=O)c1` (stereo not shown) [Compound P2.2], which melting point is on record?
The melting point was 245 to 247 °C.

With `C=Cc1cc(C)cc(C)c1C1=C(O)C2(CCN(OC)CC2)NC1=O` [Compound P2.3, 3-(2,4-Dimethyl-6-vinyl-phenyl)-4-hydroxy-8-methoxy-1,8-diaza-spiro[4.5]dec-3-en-2-one] as the compound, how does the pest or weed control at 400 ppm [2] read?
Its pest or weed control at 400 ppm is greater than 80%.

What about the pest or weed control at 200 ppm [3] of the same compound?
Its pest or weed control at 200 ppm is no less than 80%.

What about the pest or weed control [4] of the same compound?
Its pest or weed control is greater than 80%.

Which pest or weed control at 200 ppm [3] does the source give for `C=Cc1cc(C)cc(C)c1C1=C(O)C2(CCN(OC)CC2)N(C)C1=O` [Compound P2.4, 3-(2,4-Dimethyl-6-vinyl-phenyl)-4-hydroxy-8-methoxy-1-methyl-1,8-diaza-spiro[4.5]dec-3-en-2-one] here?
The pest or weed control at 200 ppm was no less than 80%.

Which pest or weed control at 200 ppm [3] does the source give for `C=Cc1cc(C)cc(C)c1C1=C(O)C2(CCN(OC)CC2)N(OC2CCCO2)C1=O` (stereo not shown) [Compound P2.5, 3-(2,4-Dimethyl-6-vinyl-phenyl)-4-hydroxy-8-methoxy-1-(tetrahydro-furan-2-yloxy)-1,8-diaza-spiro[4.5]dec-3-en-2-one] here?
Its pest or weed control at 200 ppm is no less than 80%.

What does the source list for `C#Cc1cc(C)cc(C)c1C1C(=O)NC2(CCN(OC)CC2)C1=O` (stereo not shown) [Compound P2.6]?
pest or weed control at 400 ppm [1]: > 80%; pest or weed control at 400 ppm [2]: > 80%; pest or weed control at 200 ppm [3]: ≥ 80%; pest or weed control [4]: > 80%

For `C#Cc1cc(C)cc(C)c1C1C(=O)N(C)C2(CCN(OC)CC2)C1=O` (stereo not shown) [Compound P2.7], which pest or weed control at 400 ppm [2] is on record?
The pest or weed control at 400 ppm was greater than 80%.

And the pest or weed control at 200 ppm [3]?
Its pest or weed control at 200 ppm is no less than 80%.

And the pest or weed control [4]?
The pest or weed control was greater than 80%.

With `C#Cc1cc(C)cc(C)c1C1C(=O)N(OC2CCCO2)C2(CCN(OC)CC2)C1=O` (stereo not shown) [Compound P2.8] as the compound, how does the pest or weed control at 400 ppm [1] read?
Its pest or weed control at 400 ppm is greater than 80%.

And the pest or weed control at 400 ppm [2]?
Its pest or weed control at 400 ppm is greater than 80%.

And the pest or weed control at 200 ppm [3]?
The pest or weed control at 200 ppm was no less than 80%.

And the pest or weed control [4]?
The pest or weed control was greater than 80%.

For `C#Cc1ccc(C)cc1C1C(=O)N(OC)C2(CCN(OC)CC2)C1=O` (stereo not shown) [Compound P2.10], which pest or weed control at 200 ppm [3] is on record?
Its pest or weed control at 200 ppm is no less than 80%.

Which results are given for `C#Cc1cc(C)c(C2C(=O)NC3(CCN(OC)CC3)C2=O)c(C)c1` (stereo not shown) [Compound P2.11]?
pest or weed control at 400 ppm [1]: > 80%; pest or weed control at 200 ppm [3]: ≥ 80%; pest or weed control [4]: > 80%

Which pest or weed control at 400 ppm [1] does the source give for `C#Cc1cc(C)c(C2=C(O)C3(CCN(OC)CC3)N(C)C2=O)c(C)c1` [Compound P2.12, 3-(4-Ethynyl-2,6-dimethyl-phenyl)-4-hydroxy-8-methoxy-1-methyl-1,8-diaza-spiro[4.5]dec-3-en-2-one] here?
Its pest or weed control at 400 ppm is greater than 80%.

And the pest or weed control at 200 ppm [3]?
Its pest or weed control at 200 ppm is no less than 80%.

And the pest or weed control [4]?
Its pest or weed control is greater than 80%.

Which pest or weed control at 200 ppm [3] does the source give for `CC#Cc1cc(C)c(C2=C(O)C3(CCN(OC)CC3)N(C)C2=O)c(C)c1` [Compound P2.13, 3-(2,6-Dimethyl-4-prop-1-ynyl-phenyl)-4-hydroxy-8-methoxy-1-methyl-1,8-diaza-spiro[4.5]dec-3-en-2-one] here?
Its pest or weed control at 200 ppm is no less than 80%.
